In article PMC7730235, “Discovery of a Novel Class of Covalent Dual Inhibitors Targeting the Protein Kinases BMX and BTK” (International Journal of Molecular Sciences, 2020) one finds IC50 data, which are given here for one compound.

The test concerns the target T1, JAK3 (Homo sapiens, UniProt P52333).
T1 construct: purchased Reaction Biology Corporation
T1 sequence (P52333 1-1124): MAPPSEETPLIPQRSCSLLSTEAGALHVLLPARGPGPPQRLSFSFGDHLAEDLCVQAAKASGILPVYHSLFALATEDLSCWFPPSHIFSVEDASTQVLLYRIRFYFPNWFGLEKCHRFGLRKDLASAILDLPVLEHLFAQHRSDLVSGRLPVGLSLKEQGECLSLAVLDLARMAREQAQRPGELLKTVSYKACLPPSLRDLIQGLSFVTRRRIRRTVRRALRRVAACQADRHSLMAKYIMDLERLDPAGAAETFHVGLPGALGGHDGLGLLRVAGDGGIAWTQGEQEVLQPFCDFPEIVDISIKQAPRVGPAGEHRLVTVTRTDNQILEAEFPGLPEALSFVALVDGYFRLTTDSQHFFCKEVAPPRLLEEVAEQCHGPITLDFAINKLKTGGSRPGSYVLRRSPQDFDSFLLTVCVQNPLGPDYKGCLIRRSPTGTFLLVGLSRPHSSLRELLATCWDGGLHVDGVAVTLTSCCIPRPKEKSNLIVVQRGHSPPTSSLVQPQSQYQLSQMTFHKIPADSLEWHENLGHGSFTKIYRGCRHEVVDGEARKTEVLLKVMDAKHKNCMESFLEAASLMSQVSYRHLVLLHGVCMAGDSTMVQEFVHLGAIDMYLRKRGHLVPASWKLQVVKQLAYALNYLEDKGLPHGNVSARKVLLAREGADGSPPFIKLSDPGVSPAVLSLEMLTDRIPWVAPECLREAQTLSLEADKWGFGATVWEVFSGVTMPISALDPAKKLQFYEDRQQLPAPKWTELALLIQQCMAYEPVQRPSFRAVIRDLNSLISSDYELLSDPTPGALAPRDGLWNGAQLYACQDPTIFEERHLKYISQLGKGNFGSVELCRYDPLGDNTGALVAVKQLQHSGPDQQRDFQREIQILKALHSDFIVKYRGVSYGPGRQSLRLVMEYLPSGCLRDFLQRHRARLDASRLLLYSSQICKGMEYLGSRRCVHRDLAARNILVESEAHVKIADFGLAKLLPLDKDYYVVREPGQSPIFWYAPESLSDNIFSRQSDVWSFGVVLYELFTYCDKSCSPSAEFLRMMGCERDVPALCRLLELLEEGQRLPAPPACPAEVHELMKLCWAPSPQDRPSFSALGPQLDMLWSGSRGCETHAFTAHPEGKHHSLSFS
Nature of the test: JAK3 ELISA assay. Particulars: Determined in a JAK3 ELISA assay. It is filed as biochemical.

As to `C=CC(=O)Nc1cccc(-c2c[nH]c3ncc(C(=O)NC4CCCC4)cc23)c1` [Compound 11a, 3-(3-acrylamidophenyl)-N-cyclopentyl-1H-pyrrolo[2,3-b]pyridine-5-carboxamide], the IC50 is above 10 µM.
